The record followed here is PMC4685510, “A Cell Biologist’s Field Guide to Aurora Kinase Inhibitors” (Frontiers in Oncology, 2015).

Common to all, as to assay: biochemical
What all share (type): biochemical

Test [1] addresses 363 human kinases (including Aurora A/B/C) (Homo sapiens, UniProt O75676). As to conditions: MSK2/RPS6KA4; for remaining activity at 0.5 µM / remaining activity at 0.1 µM: read-out: % Enzyme Activity (relative to DMSO controls); for remaining activity at 0.1 µM: 100 nM.
From the text: (§1) However, the Aurora A/B selectivity ratios derived from our in vitro and in vivo data can be compared to prioritize inhibitors.
Test [2] addresses 363 human kinases (including Aurora A/B/C) (Homo sapiens, UniProt Q02750). As to conditions: MEK1; for remaining activity at 0.5 µM / remaining activity at 0.1 µM: read-out: % Enzyme Activity (relative to DMSO controls); for remaining activity at 0.1 µM: 100 nM.
From the text: as §1
For test [3], the target named is T1, 363 human kinases (including Aurora A/B/C) (Homo sapiens, UniProt Q04771).
T1 sequence (Q04771 21-509): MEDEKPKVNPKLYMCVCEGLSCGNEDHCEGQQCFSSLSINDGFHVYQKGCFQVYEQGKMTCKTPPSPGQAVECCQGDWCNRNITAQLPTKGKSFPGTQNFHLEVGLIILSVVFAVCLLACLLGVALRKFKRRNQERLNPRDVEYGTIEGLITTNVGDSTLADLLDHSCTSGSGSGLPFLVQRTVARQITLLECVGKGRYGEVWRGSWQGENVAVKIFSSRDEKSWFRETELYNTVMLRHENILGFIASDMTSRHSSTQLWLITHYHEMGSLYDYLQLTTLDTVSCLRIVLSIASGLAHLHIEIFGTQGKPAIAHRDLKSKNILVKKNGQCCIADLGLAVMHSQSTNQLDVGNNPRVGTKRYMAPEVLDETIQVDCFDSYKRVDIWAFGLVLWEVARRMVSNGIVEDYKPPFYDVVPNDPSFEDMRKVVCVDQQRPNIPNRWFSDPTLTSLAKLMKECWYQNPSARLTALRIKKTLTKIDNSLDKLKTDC
The conditions noted are these: ALK2/ACVR1, [ATP] 20 µM; for remaining activity at 0.5 µM / remaining activity at 0.1 µM: read-out: % Enzyme Activity (relative to DMSO controls); for remaining activity at 0.1 µM: 100 nM.
From the text: as §1

Test [4] addresses T2, 363 human kinases (including Aurora A/B/C) (Homo sapiens, UniProt Q13188).
T2 sequence (Q13188 1-491): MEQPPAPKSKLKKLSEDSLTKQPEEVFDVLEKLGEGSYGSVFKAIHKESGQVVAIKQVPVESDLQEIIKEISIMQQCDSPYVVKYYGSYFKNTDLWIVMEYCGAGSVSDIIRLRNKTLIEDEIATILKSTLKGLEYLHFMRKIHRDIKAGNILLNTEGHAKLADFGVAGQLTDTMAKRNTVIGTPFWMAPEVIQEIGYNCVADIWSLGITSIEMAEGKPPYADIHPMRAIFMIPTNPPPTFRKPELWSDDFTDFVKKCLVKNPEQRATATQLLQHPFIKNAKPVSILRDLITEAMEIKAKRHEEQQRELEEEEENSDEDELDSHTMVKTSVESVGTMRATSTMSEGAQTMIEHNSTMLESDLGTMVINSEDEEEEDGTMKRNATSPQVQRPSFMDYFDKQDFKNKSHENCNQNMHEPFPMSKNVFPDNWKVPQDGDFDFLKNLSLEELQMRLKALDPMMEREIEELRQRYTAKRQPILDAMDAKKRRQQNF
As to conditions: MST2/STK3; for remaining activity at 0.5 µM / remaining activity at 0.1 µM: read-out: % Enzyme Activity (relative to DMSO controls); for remaining activity at 0.1 µM: 100 nM.
From the text: as §1

In test [5] the target is 363 human kinases (including Aurora A/B/C) (Homo sapiens, UniProt Q15303). The conditions noted are these: ERBB4/HER4, [ATP] 2.5 µM; for remaining activity at 0.5 µM / remaining activity at 0.1 µM: read-out: % Enzyme Activity (relative to DMSO controls); for remaining activity at 0.1 µM: 100 nM.
From the text: as §1
The target in test [6] is 363 human kinases (including Aurora A/B/C) (Homo sapiens, UniProt Q86UE8). The conditions noted are these: TLK2; for remaining activity at 0.5 µM / remaining activity at 0.1 µM: read-out: % Enzyme Activity (relative to DMSO controls); for remaining activity at 0.1 µM: 100 nM.
From the text: as §1
Test [7] concerns the target T3, 363 human kinases (including Aurora A/B/C) (Homo sapiens, UniProt Q96L34).
T3 sequence (Q96L34 1-752): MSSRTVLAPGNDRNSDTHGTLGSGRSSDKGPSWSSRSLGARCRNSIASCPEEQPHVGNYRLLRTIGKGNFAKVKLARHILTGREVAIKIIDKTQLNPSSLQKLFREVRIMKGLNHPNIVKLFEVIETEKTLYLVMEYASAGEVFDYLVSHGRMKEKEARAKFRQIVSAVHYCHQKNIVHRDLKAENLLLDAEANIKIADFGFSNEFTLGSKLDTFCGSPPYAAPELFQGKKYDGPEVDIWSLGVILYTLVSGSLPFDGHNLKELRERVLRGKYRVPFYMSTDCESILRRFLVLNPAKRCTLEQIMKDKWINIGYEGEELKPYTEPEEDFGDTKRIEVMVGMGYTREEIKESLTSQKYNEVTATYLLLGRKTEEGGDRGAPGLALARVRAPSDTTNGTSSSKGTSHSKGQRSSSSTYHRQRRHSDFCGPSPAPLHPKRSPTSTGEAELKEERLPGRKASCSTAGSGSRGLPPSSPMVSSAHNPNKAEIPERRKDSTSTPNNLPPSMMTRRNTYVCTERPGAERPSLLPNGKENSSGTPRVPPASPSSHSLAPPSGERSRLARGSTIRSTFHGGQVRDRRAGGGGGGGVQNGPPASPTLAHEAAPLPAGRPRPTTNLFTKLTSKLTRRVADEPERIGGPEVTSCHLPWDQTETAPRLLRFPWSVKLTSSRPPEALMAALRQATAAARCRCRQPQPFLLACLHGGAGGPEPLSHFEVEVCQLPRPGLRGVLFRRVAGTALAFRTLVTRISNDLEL
As to conditions: MARK4; for remaining activity at 0.5 µM / remaining activity at 0.1 µM: read-out: % Enzyme Activity (relative to DMSO controls); for remaining activity at 0.1 µM: 100 nM.
From the text: as §1

363 human kinases (including Aurora A/B/C) (Homo sapiens, UniProt Q15303), sequence (Q15303 26-1308): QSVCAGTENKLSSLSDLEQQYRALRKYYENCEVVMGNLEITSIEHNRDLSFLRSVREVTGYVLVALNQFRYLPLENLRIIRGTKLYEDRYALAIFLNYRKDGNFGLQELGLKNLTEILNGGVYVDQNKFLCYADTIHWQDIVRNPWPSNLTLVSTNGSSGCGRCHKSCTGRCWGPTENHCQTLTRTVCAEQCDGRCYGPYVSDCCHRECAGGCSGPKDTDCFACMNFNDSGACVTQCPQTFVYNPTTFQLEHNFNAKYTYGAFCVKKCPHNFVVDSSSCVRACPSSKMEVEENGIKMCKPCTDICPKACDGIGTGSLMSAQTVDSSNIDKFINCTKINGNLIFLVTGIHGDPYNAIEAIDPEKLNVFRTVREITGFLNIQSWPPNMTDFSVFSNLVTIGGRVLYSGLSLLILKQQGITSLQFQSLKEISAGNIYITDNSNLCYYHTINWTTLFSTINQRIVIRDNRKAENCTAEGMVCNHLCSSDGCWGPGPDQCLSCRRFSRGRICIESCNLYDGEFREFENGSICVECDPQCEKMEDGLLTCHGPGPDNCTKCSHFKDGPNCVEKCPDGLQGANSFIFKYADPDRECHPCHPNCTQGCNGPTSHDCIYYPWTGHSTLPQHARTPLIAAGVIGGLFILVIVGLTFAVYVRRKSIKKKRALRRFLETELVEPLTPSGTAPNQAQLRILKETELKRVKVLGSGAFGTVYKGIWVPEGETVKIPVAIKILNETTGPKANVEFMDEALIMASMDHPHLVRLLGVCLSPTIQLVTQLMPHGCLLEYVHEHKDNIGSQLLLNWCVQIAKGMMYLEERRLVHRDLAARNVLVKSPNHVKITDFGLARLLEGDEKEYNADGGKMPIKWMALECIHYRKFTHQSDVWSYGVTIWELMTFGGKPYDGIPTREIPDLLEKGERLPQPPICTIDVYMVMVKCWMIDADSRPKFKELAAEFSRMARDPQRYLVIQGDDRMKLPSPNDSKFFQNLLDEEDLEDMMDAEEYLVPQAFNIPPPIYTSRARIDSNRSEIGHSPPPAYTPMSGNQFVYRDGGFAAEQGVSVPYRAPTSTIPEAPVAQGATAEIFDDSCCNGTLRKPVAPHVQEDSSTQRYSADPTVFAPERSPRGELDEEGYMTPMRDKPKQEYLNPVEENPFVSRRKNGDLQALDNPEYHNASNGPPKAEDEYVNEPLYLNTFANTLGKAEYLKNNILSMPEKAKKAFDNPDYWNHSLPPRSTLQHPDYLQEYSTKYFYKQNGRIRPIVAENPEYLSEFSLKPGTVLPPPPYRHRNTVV
363 human kinases (including Aurora A/B/C) (Homo sapiens, UniProt O75676), sequence (O75676 whole entry): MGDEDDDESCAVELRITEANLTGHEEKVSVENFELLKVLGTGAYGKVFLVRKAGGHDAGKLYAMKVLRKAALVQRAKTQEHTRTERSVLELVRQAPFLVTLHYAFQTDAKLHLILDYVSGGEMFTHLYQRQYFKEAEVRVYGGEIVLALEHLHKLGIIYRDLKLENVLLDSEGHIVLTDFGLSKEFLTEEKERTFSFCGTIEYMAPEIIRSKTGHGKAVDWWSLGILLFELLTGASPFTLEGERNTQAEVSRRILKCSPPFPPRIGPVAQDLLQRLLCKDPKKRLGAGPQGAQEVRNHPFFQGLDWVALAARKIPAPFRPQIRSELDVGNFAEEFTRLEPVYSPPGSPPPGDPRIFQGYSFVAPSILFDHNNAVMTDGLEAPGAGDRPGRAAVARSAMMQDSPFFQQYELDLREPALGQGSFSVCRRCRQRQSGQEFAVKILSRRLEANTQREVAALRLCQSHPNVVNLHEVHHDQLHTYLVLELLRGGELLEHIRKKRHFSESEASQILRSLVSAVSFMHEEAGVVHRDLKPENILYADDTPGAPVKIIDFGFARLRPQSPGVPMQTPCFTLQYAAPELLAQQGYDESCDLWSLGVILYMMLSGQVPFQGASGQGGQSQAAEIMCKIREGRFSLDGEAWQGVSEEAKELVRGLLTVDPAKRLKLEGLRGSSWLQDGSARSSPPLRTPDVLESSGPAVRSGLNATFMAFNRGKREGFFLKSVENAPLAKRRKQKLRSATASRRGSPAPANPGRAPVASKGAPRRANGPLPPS
363 human kinases (including Aurora A/B/C) (Homo sapiens, UniProt Q86UE8), sequence (Q86UE8 whole entry): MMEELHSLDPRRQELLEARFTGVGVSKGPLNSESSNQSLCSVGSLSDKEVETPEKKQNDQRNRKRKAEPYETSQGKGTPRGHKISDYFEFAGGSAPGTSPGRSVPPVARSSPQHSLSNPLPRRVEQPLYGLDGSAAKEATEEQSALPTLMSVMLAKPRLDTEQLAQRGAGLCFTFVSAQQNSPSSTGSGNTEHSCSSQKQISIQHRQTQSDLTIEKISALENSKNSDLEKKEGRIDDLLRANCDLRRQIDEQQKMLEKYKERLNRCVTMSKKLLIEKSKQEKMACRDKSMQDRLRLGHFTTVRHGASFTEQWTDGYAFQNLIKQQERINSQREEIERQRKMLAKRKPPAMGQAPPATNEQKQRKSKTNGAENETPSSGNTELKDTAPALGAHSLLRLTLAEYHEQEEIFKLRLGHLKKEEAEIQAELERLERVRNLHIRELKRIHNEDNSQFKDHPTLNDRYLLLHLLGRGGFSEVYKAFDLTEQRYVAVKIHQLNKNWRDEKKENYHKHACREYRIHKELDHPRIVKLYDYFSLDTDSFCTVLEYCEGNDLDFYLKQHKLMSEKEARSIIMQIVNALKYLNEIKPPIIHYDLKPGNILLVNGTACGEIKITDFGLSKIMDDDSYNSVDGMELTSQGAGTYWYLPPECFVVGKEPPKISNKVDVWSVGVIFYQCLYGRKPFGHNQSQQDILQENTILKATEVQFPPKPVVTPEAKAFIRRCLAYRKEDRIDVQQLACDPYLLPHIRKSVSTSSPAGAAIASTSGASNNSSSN
363 human kinases (including Aurora A/B/C) (Homo sapiens, UniProt Q02750), sequence (Q02750 whole entry): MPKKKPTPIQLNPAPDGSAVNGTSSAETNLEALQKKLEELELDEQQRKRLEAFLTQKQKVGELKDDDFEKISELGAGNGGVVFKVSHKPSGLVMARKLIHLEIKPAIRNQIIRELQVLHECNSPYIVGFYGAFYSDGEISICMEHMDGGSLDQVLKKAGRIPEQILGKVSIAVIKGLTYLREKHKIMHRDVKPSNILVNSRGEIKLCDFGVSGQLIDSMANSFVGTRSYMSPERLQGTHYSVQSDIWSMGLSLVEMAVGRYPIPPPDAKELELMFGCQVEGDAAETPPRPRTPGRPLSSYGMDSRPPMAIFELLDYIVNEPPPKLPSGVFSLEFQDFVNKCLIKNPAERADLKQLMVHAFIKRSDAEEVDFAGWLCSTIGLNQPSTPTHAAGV

In the case of `O=C(c1cccc(Cl)c1F)N1CCN(Cc2cccc(Nc3nccs3)n2)CC1` [MK-8745], the “% Enzyme Activity (relative to DMSO controls)” value in test [1] (500 nM) is listed as 96.01%; in test [2] (500 nM) it was 96.32%; in test [3] (500 nM), 140.43%; in test [4] (500 nM) it was 46.05%; in test [5] (500 nM), 93.35%; in test [6] (500 nM), 99.16%. For the same compound, in test [7] (500 nM), the “% Enzyme Activity (relative to DMSO controls)” value was determined as 102.33%. Further, the remaining activity at 0.5 µM in test [1] (500 nM) was 96.1%; in test [2] (500 nM), 97%; in test [3] (500 nM), 146%; in test [4] (500 nM), 46.6%; in test [5] (500 nM), 94.9%; in test [6] (500 nM) it was 100%. Moreover, in test [7] (500 nM), the remaining activity at 0.5 µM was 105%.

For the compound `CCn1cc(-c2ccnc3[nH]c(-c4cccc(CN(C)C)c4)cc23)c(-c2ccc(NC(=O)N(C)C)cc2)n1` [GSK1070916], the remaining activity at 0.1 µM was found to be 103% in test [1]; 102% in test [2]; 130% in test [3]; 91.8% in test [4]; 87.3% in test [5]; 100% in test [6]. Moreover, in test [7], the remaining activity at 0.1 µM is 111%.

`O=C(O)[C@]1(Cc2cccc(Nc3nccs3)n2)CC[C@@H](Oc2cccc(Cl)c2F)CC1` [MK-5108]: the remaining activity at 0.1 µM in test [1] was found to be 103%; in test [2], 93.4%; in test [3], 116%; in test [4], 87.7%; in test [5], 97.1%; in test [6], 111%. The remaining activity at 0.1 µM in test [7] is 106%. Moreover, the remaining activity at 0.5 µM in test [1] (500 nM) was found to be 98.8%; in test [2] (500 nM) it was 96.2%; in test [3] (500 nM), 34.5%; in test [4] (500 nM) it was 48.4%; in test [5] (500 nM), 77.7%; in test [6] (500 nM), 98.3%. The remaining activity at 0.5 µM in test [7] (500 nM) came to 101%.
